According to the NIST ThermoML archive (doi:10.1016/j.tca.2010.12.008):

Assay: molar heat capacity at constant pressure
Settings: 101.33 kPa

CC(C)(C)P(=O)(O)C(C)(C)C [di-tert-butylphosphinic acid]
Settings | molar heat capacity at constant pressure [J/K/mol]
2.277 K, Crystal 2 | 0.028
2.67 K, Crystal 2 | 0.056
3.092 K, Crystal 2 | 0.169
3.71 K, Crystal 2 | 0.338
4.497 K, Crystal 2 | 0.591
5.284 K, Crystal 2 | 0.929
5.987 K, Crystal 2 | 1.352
6.633 K, Crystal 2 | 1.83
7.223 K, Crystal 2 | 2.337
7.813 K, Crystal 2 | 2.872
8.404 K, Crystal 2 | 3.548
9.078 K, Crystal 2 | 4.337
9.808 K, Crystal 2 | 5.322
10.74 K, Crystal 2 | 6.589
11.66 K, Crystal 2 | 7.941
12.56 K, Crystal 2 | 9.405
13.52 K, Crystal 2 | 10.93
14.44 K, Crystal 2 | 12.42
15.34 K, Crystal 2 | 13.94
16.24 K, Crystal 2 | 15.46
17.17 K, Crystal 2 | 17.04
18.15 K, Crystal 2 | 18.7
19.22 K, Crystal 2 | 20.47
20.32 K, Crystal 2 | 22.27
21.3 K, Crystal 2 | 23.93
22.28 K, Crystal 2 | 25.54
23.29 K, Crystal 2 | 27.17
24.3 K, Crystal 2 | 28.84
25.37 K, Crystal 2 | 30.69
26.44 K, Crystal 2 | 32.05
27.48 K, Crystal 2 | 33.54
28.6 K, Crystal 2 | 35.23
29.67 K, Crystal 2 | 36.78
30.74 K, Crystal 2 | 38.47
31.78 K, Crystal 2 | 40.07
32.82 K, Crystal 2 | 41.87
34.73 K, Crystal 2 | 45.11
35.2 K, Crystal 2 | 46.01
35.88 K, Crystal 2 | 47.28
36.58 K, Crystal 2 | 48.41
37.37 K, Crystal 1 | 47.62
38.02 K, Crystal 1 | 45.28
38.77 K, Crystal 1 | 45.25
39.59 K, Crystal 1 | 45.81
40.38 K, Crystal 1 | 46.52
41.16 K, Crystal 1 | 47.25
41.95 K, Crystal 1 | 48.01
42.74 K, Crystal 1 | 48.77
43.55 K, Crystal 1 | 49.65
44.37 K, Crystal 1 | 50.52
45.18 K, Crystal 1 | 51.33
46 K, Crystal 1 | 52.18
46.84 K, Crystal 1 | 53.05
47.66 K, Crystal 1 | 53.9
48.47 K, Crystal 1 | 54.74
49.31 K, Crystal 1 | 55.53
50.1 K, Crystal 1 | 56.32
50.97 K, Crystal 1 | 57.08
51.81 K, Crystal 1 | 57.9
52.63 K, Crystal 1 | 58.8
53.44 K, Crystal 1 | 59.56
54.29 K, Crystal 1 | 60.43
55.1 K, Crystal 1 | 61.3
55.94 K, Crystal 1 | 62.17
56.79 K, Crystal 1 | 63.08
57.66 K, Crystal 1 | 63.98
58.67 K, Crystal 1 | 65.08
59.34 K, Crystal 1 | 65.81
60.19 K, Crystal 1 | 66.74
61 K, Crystal 1 | 67.64
61.65 K, Crystal 1 | 68.31
62.63 K, Crystal 1 | 69.41
63.11 K, Crystal 1 | 69.95
63.56 K, Crystal 1 | 70.45
64.57 K, Crystal 1 | 71.58
65.27 K, Crystal 1 | 72.4
66 K, Crystal 1 | 73.16
66.9 K, Crystal 1 | 74.2
67.41 K, Crystal 1 | 74.76
67.94 K, Crystal 1 | 75.35
68.9 K, Crystal 1 | 76.37
69.57 K, Crystal 1 | 77.21
70.28 K, Crystal 1 | 77.94
70.64 K, Crystal 1 | 78.42
71.23 K, Crystal 1 | 79.24
71.62 K, Crystal 1 | 79.66
81.51 K, Crystal 1 | 92.05
82.47 K, Crystal 1 | 93.11
83.42 K, Crystal 1 | 94.18
84.38 K, Crystal 1 | 95.24
85.33 K, Crystal 1 | 96.41
86.29 K, Crystal 1 | 97.48
87.35 K, Crystal 1 | 98.65
88.31 K, Crystal 1 | 99.82
89.26 K, Crystal 1 | 100.89
90.32 K, Crystal 1 | 102.06
91.28 K, Crystal 1 | 103.23
92.34 K, Crystal 1 | 104.4
93.3 K, Crystal 1 | 105.58
94.36 K, Crystal 1 | 106.75
95.31 K, Crystal 1 | 107.81
96.27 K, Crystal 1 | 109.09
97.33 K, Crystal 1 | 110.16
98.39 K, Crystal 1 | 111.33
99.34 K, Crystal 1 | 112.39
100.41 K, Crystal 1 | 113.56
101.47 K, Crystal 1 | 114.74
102.53 K, Crystal 1 | 115.8
103.59 K, Crystal 1 | 116.97
104.55 K, Crystal 1 | 118.04
105.71 K, Crystal 1 | 119.32
106.78 K, Crystal 1 | 120.49
107.84 K, Crystal 1 | 121.56
108.9 K, Crystal 1 | 122.73
109.96 K, Crystal 1 | 123.9
111.02 K, Crystal 1 | 124.96
112.08 K, Crystal 1 | 126.24
113.14 K, Crystal 1 | 127.31
114.2 K, Crystal 1 | 128.48
115.27 K, Crystal 1 | 129.54
116.43 K, Crystal 1 | 130.61
117.5 K, Crystal 1 | 131.89
118.56 K, Crystal 1 | 133.17
119.72 K, Crystal 1 | 134.34
120.79 K, Crystal 1 | 135.3
121.95 K, Crystal 1 | 136.47
123.12 K, Crystal 1 | 137.64
124.18 K, Crystal 1 | 138.92
125.35 K, Crystal 1 | 139.99
126.52 K, Crystal 1 | 141.05
127.69 K, Crystal 1 | 142.22
128.85 K, Crystal 1 | 143.4
130.02 K, Crystal 1 | 144.57
131.19 K, Crystal 1 | 145.74
132.46 K, Crystal 1 | 147.02
133.53 K, Crystal 1 | 148.19
134.69 K, Crystal 1 | 149.04
135.75 K, Crystal 1 | 150.32
137.24 K, Crystal 1 | 151.28
138.41 K, Crystal 1 | 152.45
139.58 K, Crystal 1 | 153.52
141.06 K, Crystal 1 | 154.79
142.44 K, Crystal 1 | 156.07
143.93 K, Crystal 1 | 157.56
145.2 K, Crystal 1 | 158.74
146.69 K, Crystal 1 | 160.12
148.18 K, Crystal 1 | 161.4
149.88 K, Crystal 1 | 163
151.25 K, Crystal 1 | 164.38
152.74 K, Crystal 1 | 165.77
154.33 K, Crystal 1 | 167.04
155.61 K, Crystal 1 | 168.32
157.31 K, Crystal 1 | 169.71
158.79 K, Crystal 1 | 170.99
160.17 K, Crystal 1 | 172.37
162.09 K, Crystal 1 | 173.76
163.68 K, Crystal 1 | 175.25
164.95 K, Crystal 1 | 176.42
166.76 K, Crystal 1 | 177.81
168.24 K, Crystal 1 | 179.3
169.94 K, Crystal 1 | 180.79
171.64 K, Crystal 1 | 182.28
173.34 K, Crystal 1 | 183.77
174.83 K, Crystal 1 | 185.05
176.74 K, Crystal 1 | 186.86
182.79 K, Crystal 1 | 191.66
183.96 K, Crystal 1 | 192.72
185.13 K, Crystal 1 | 193.79
186.61 K, Crystal 1 | 195.06
188.1 K, Crystal 1 | 196.24
189.16 K, Crystal 1 | 197.3
190.75 K, Crystal 1 | 198.37
192.13 K, Crystal 1 | 199.65
193.62 K, Crystal 1 | 200.92
195.11 K, Crystal 1 | 202.2
196.49 K, Crystal 1 | 203.37
198.08 K, Crystal 1 | 204.65
199.57 K, Crystal 1 | 205.72
201.16 K, Crystal 1 | 207.1
202.65 K, Crystal 1 | 208.27
204.13 K, Crystal 1 | 209.55
205.72 K, Crystal 1 | 210.72
207.32 K, Crystal 1 | 212
209.02 K, Crystal 1 | 213.18
210.5 K, Crystal 1 | 214.45
212.31 K, Crystal 1 | 215.73
213.8 K, Crystal 1 | 217.01
215.5 K, Crystal 1 | 218.5
217.3 K, Crystal 1 | 219.78
218.89 K, Crystal 1 | 221.16
220.7 K, Crystal 1 | 222.76
222.5 K, Crystal 1 | 224.04
224.31 K, Crystal 1 | 225.53
225.9 K, Crystal 1 | 227.24
227.81 K, Crystal 1 | 228.62
229.72 K, Crystal 1 | 230.11
231.53 K, Crystal 1 | 231.82
233.23 K, Crystal 1 | 233.2
235.03 K, Crystal 1 | 234.69
236.84 K, Crystal 1 | 236.08
238.85 K, Crystal 1 | 237.57
240.66 K, Crystal 1 | 239.06
242.78 K, Crystal 1 | 240.77
244.7 K, Crystal 1 | 242.15
246.61 K, Crystal 1 | 243.75
248.52 K, Crystal 1 | 245.35
250.54 K, Crystal 1 | 247.05
252.55 K, Crystal 1 | 248.76
254.57 K, Crystal 1 | 250.25
256.59 K, Crystal 1 | 251.85
258.71 K, Crystal 1 | 253.44
260.62 K, Crystal 1 | 255.26
262.75 K, Crystal 1 | 257.07
264.98 K, Crystal 1 | 258.77
266.89 K, Crystal 1 | 260.69
269.22 K, Crystal 1 | 262.39
271.35 K, Crystal 1 | 264.63
273.37 K, Crystal 1 | 265.91
275.7 K, Crystal 1 | 267.4
277.82 K, Crystal 1 | 269.32
280.27 K, Crystal 1 | 271.45
282.18 K, Crystal 1 | 272.62
284.62 K, Crystal 1 | 274.96
286.96 K, Crystal 1 | 276.99
289.29 K, Crystal 1 | 279.01
291.63 K, Crystal 1 | 281.14
293.64 K, Crystal 1 | 283.17
295.98 K, Crystal 1 | 283.49
